Test results: patent US20230399312A1, “SUBSTITUTED PYRIMIDINES AND METHODS OF USE” (THERAVANCE BIOPHARMA R&D IP, LLC, priority 2020, published 2023)

Columns and labels:
[1] = tested on: TGF-β-stimulated SMAD3 phosphorylation in BEAS-2B cells; assay: Cellular ALK5 potency assay, inhibition of TGF-β stimulated pSMAD3 formation in BEAS-2B cells; assay type: cell-based; conditions: Homo sapiens, pSMAD3, TGF-β 10 ng/mL, read-out: BEAS2B pIC50 (converted)
In short: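 Human lung epithelial BEAS-2B cells were preincubated 1 h at 37 °C with compound in HBSS/HEPES/1% BSA, then stimulated 30 min with 10 ng/mL TGF-β. pSMAD3 in lysates was quantified by AlphaLISA relative to untreated stimulated cells; reported as pIC50.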

[2] = target: T1, recombinant human ALK5 (TGF-βR1) protein (Homo sapiens, UniProt P36897); assay: Biochemical ALK5 (TGF-βR1) assay to measure pKi (LANCE Ultra ULight kinase assay); conditions: apparent pKi, converted from pIC50 by Cheng-Prusoff
T1 construct: purchased Life Technologies PR9075A
T1 sequence (P36897 34-503): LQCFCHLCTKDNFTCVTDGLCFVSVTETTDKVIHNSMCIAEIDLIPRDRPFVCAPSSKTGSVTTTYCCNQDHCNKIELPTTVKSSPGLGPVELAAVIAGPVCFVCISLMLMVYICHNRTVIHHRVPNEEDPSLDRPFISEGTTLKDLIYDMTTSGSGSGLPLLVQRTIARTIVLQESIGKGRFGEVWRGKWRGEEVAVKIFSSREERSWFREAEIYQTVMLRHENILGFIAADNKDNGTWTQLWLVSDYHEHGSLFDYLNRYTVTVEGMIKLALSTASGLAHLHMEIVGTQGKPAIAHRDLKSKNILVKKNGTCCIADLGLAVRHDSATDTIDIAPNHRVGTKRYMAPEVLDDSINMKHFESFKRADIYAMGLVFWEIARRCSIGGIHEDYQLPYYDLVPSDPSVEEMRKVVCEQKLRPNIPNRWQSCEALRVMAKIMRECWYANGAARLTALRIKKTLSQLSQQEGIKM
In short: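 Enzyme preincubated with compound for 60 min at room temperature, then reacted with ATP (125 μM as 5× stock) for 60 min at 37 °C. Stopped with EDTA plus Eu-anti-phospho-Topoisomerase 2-alpha (Thr1342) antibody and read by TR-FRET at 665 nm. pIC50 from a 4-parameter fit, converted to pKi by Cheng-Prusoff.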

Structure (SMILES)	Ki [2] [nM]	IC50 [1] [nM]
Cc1cccc(-c2nccc(Nc3ccnc(Nc4cccc(C(=O)N5CCOCC5)c4)n3)n2)n1 [Compound 72, [3-[[4-[[2-(6-methyl-2-pyridyl)pyrimidin-4-yl]amino]pyrimidin-2-yl]amino]phenyl]-morpholino-methanone]	0.398 to 3.16	25.1 to 158
Cc1cccc(-c2nccc(Nc3ccnc(Nc4ccc(S(=O)(=O)N5CCNCC5)cc4)n3)n2)n1 [Compound 21, N4-[2-(6-methyl-2-pyridyl)pyrimidin-4-yl]-N2-(4-piperazin-1-ylsulfonylphenyl)pyrimidine-2,4-diamine]	0.0398 to 0.316	25.1 to 158
Cc1cccc(-c2nccc(Nc3ccnc(Nc4ccc(F)c(CN5C6CCC5CNC6)c4)n3)n2)n1 [Compound 384, N2-[3-(3,8-diazabicyclo[3.2.1]octan-8-ylmethyl)-4-fluoro-phenyl]-N4-[2-(6-methyl-2-pyridyl)pyrimidin-4-yl]pyrimidine-2,4-diamine]	0.0398 to 0.316	25.1 to 158
Cc1cccc(-c2nccc(Nc3ccnc(Nc4ccc(C(=O)OCC5CCNCC5)nc4)n3)n2)n1 [Compound 587, 4-piperidylmethyl 5-[[4-[[2-(6-methyl-2-pyridyl)pyrimidin-4-yl]amino]pyrimidin-2-yl]amino]pyridine-2-carboxylate]	0.0398 to 0.316	25.1 to 158
Cc1cccc(-c2nccc(Nc3ccnc(Nc4ccc(C(=O)O[C@H](C)C5CCNCC5)nc4)n3)n2)n1 [Compound 562, [(1R)-1-(4-piperidyl)ethyl] 5-[[4-[[2-(6-methyl-2-pyridyl)pyrimidin-4-yl]amino]pyrimidin-2-yl]amino]pyridine-2-carboxylate]	0.0398 to 0.316	200 to 1260
Cc1cccc(-c2nccc(Nc3ccnc(Nc4ccc(CN5CCCC(C(=O)OCC6CNC6)C5)cc4)n3)n2)n1 (stereo not shown) [Compound 318, azetidin-3-ylmethyl 1-[[4-[[4-[[2-(6-methyl-2-pyridyl)pyrimidin-4-yl]amino]pyrimidin-2-yl]amino]phenyl]methyl] piperidine-3-carboxylate]	0.0398 to 0.316	25.1 to 158
Cc1cccc(-c2nccc(Nc3ccnc(Nc4ccc(C(=O)OCCN5CCNCC5)nc4)n3)n2)n1 [Compound 552, 2-piperazin-1-ylethyl 5-[[4-[[2-(6-methyl-2-pyridyl)pyrimidin-4-yl]amino]pyrimidin-2-yl]amino]pyridine-2-carboxylate]	0.0398 to 0.316	25.1 to 158
CCOC(=O)Cc1ccc(Nc2nccc(Nc3ccnc(-c4cccc(C)n4)n3)n2)cc1 [Compound 304, ethyl 2-[4-[[4-[[2-(6-methyl-2-pyridyl)pyrimidin-4-yl]amino]pyrimidin-2-yl]amino]phenyl]acetate]	0.398 to 3.16	25.1 to 158
Cc1cccc(-c2nccc(Nc3ccnc(Nc4ccc(N5CCN[C@@H](CO)C5)cc4)n3)n2)n1 [Compound 403, (R)-(4-(4-((4-((2-(6-methylpyridin-2-yl)pyrimidin-4-yl)amino)pyrimidin-2-yl)amino)phenyl)piperazin-2-yl)methanol]	0.0398 to 0.316	25.1 to 158
Cc1cccc(-c2nccc(Nc3ccnc(Nc4ccc(N5CCN(CCO)CC5)cc4)n3)n2)n1 [Compound 534, 2-[4-[4-[[4-[[2-(6-methyl-2-pyridyl)pyrimidin-4-yl]amino]pyrimidin-2-yl]amino]phenyl]piperazin-1-yl]ethanol]	0.0398 to 0.316	25.1 to 158
Cc1cccc(-c2nccc(Nc3ccnc(Nc4cnn(CCCN)c4)n3)n2)n1 [Compound 286, N2-[1-(3-aminopropyl)pyrazol-4-yl]-N4-[2-(6-methyl-2-pyridyl)pyrimidin-4-yl]pyrimidine-2,4-diamine]	0.0398 to 0.316	200 to 1260
COC(=O)CC1CNCCN1c1ccc(Nc2nccc(Nc3ccnc(-c4cccc(C)n4)n3)n2)cc1 (stereo not shown) [Compound 462, methyl 2-[1-[4-[[4-[[2-(6-methyl-2-pyridyl)pyrimidin-4-yl]amino]pyrimidin-2-yl]amino]phenyl]piperazin-2-yl]acetate]	0.0398 to 0.316	25.1 to 158
Cc1ccc(Nc2nccc(Nc3ccnc(-c4cccc(C)n4)n3)n2)cc1 [Compound 170, N4-[2-(6-methyl-2-pyridyl)pyrimidin-4-yl]-N2-(p-tolyl)pyrimidine-2,4-diamine]	0.398 to 3.16	25.1 to 158
COC(=O)[C@H]1CN(c2ccc(Nc3nccc(Nc4ccnc(-c5cccc(C)n5)n4)n3)cc2)CCN1 [Compound 172, methyl (2R)-4-[4-[[4-[[2-(6-methyl-2-pyridyl)pyrimidin-4-yl]amino]pyrimidin-2-yl]amino]phenyl]piperazine-2-carboxylate]	0.0398 to 0.316	25.1 to 158
Cc1cccc(-c2nccc(Nc3ccnc(Nc4ccc(C)c(N)c4)n3)n2)n1 [Compound 421, N2-(3-amino-4-methyl-phenyl)-N4-[2-(6-methyl-2-pyridyl)pyrimidin-4-yl]pyrimidine-2,4-diamine]	0.0398 to 0.316	≤ 20
CC(=O)N1CC(COC(=O)c2cc(Nc3nccc(Nc4ccnc(-c5cccc(C)n5)n4)n3)cs2)C1 [Compound 576, (1-acetylazetidin-3-yl)methyl 4-[[4-[[2-(6-methyl-2-pyridyl)pyrimidin-4-yl]amino]pyrimidin-2-yl]amino]thiophene-2-carboxylate]	0.0398 to 0.316	25.1 to 158
COC(=O)Cc1ccc(Nc2nccc(Nc3ccnc(-c4cccc(C)n4)n3)n2)cc1 [Compound 442, methyl 2-[4-[[4-[[2-(6-methyl-2-pyridyl)pyrimidin-4-yl]amino]pyrimidin-2-yl]amino]phenyl]acetate]	0.398 to 3.16	25.1 to 158
Cc1cccc(-c2nccc(Nc3ccnc(Nc4ccc(N5CCC(N(C)Cc6ccccc6)CC5)cc4)n3)n2)n1 [Compound 432, N2-[4-[4-[benzyl(methyl)amino]-1-piperidyl]phenyl]-N4-[2-(6-methyl-2-pyridyl)pyrimidin-4-yl]pyrimidine-2,4-diamine]	0.0398 to 0.316	25.1 to 158

Now from value to compound, other results behind:

Ki [2] [nM]	Structure (SMILES)	IC50 [1] [nM]
0.0398 to 0.316	Cc1cccc(-c2nccc(Nc3ccnc(Nc4csc(C(=O)NC5(CO)CCNC5)c4)n3)n2)n1 (stereo not shown) [Compound 40, N-[3-(hydroxymethyl)pyrrolidin-3-yl]-4-[[4-[[2-(6-methyl-2-pyridyl)pyrimidin-4-yl]amino]pyrimidin-2-yl]amino]thiophene-2-carboxamide]	25.1 to 158
0.0398 to 0.316	Cc1cccc(-c2nccc(Nc3ccnc(Nc4ccc(CN5CC(C(=O)O[C@@H]6CCNC6)C5)cc4)n3)n2)n1 [Compound 152, [(3R)-pyrrolidin-3-yl] 1-[[4-[[4-[[2-(6-methyl-2-pyridyl)pyrimidin-4-yl]amino]pyrimidin-2-yl]amino]phenyl]methyl] azetidine-3-carboxylate]	25.1 to 158
0.0398 to 0.316	Cc1cccc(-c2nccc(Nc3ccnc(Nc4ccc(NC(=O)C5CCNCC5)c(C)c4)n3)n2)n1 [Compound 265, N-[2-methyl-4-[[4-[[2-(6-methyl-2-pyridyl)pyrimidin-4-yl]amino]pyrimidin-2-yl]amino]phenyl]piperidine-4-carboxamide]	≤ 20
0.0398 to 0.316	Cc1cccc(-c2nccc(Nc3ccnc(Nc4ccc(CN5CCN[C@@H](C(=O)O)C5)cc4)n3)n2)n1 [Compound 200, (2R)-4-[[4-[[4-[[2-(6-methyl-2-pyridyl)pyrimidin-4-yl]amino]pyrimidin-2-yl]amino]phenyl]methyl] piperazine-2-carboxylic acid]	200 to 1260
0.0398 to 0.316	Cc1cccc(-c2nccc(Nc3ccnc(Nc4cccc(NC(=O)C5CCNCC5)c4)n3)n2)n1 [Compound 288, N-[3-[[4-[[2-(6-methyl-2-pyridyl)pyrimidin-4-yl]amino]pyrimidin-2-yl]amino]phenyl]piperidine-4-carboxamide]	≤ 20
0.0398 to 0.316	CC[C@H](C)OC(=O)C1CN(Cc2ccc(Nc3nccc(Nc4ccnc(-c5cccc(C)n5)n4)n3)cc2)CCN1 (mixture of isomers) [Compound 382, [rac-(1S)-1-methylpropyl] 4-[[4-[[4-[[2-(6-methyl-2-pyridyl)pyrimidin-4-yl]amino]pyrimidin-2-yl]amino]phenyl]methyl] piperazine-2-carboxylate]	25.1 to 158
0.0398 to 0.316	Cc1cccc(-c2nccc(Nc3ccnc(Nc4ccc(C(=O)N5CCNCC5)s4)n3)n2)n1 [Compound 115, [5-[[4-[[2-(6-methyl-2-pyridyl)pyrimidin-4-yl]amino]pyrimidin-2-yl]amino]-2-thienyl]-piperazin-1-yl-methanone]	25.1 to 158
≤ 0.0316	Cc1cccc(-c2nccc(Nc3ccnc(Nc4ccc(C5CNCCN5)cc4)n3)n2)n1 (stereo not shown) [Compound 539, N4-[2-(6-methyl-2-pyridyl)pyrimidin-4-yl]-N2-(4-piperazin-2-ylphenyl)pyrimidine-2,4-diamine]	25.1 to 158
